Measured values from ChEMBL document CHEMBL1201862, “PubChem BioAssay data set” (2004).
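Each compound was tested at five concentrations against cells in 96-well plates for 48 hours. GI50: concentration for 50% inhibition of growth.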 Calls of active or inactive are those of the source. Cut-off read from the data, not from the text of the source: active = GI50 up to about 1.1 µM and inactive = higher.

What was measured:
Experiment in all cases: NCI anticancer screen, dose series, 48 h
[1] = system: K562
[2] = system: HT-29
[3] = system: DLD-1
[4] = system: RPMI-8226
[5] = system: SN12C
[6] = system: SF-539
[7] = system: HOP-92
[8] = system: BT-549
[9] = system: ACHN
[10] = system: HCT-116
[11] = system: SNB-19
[12] = system: SK-MEL-5
[13] = system: NCI-H226
[14] = system: HCT-15
[15] = system: SNB-75
[16] = system: A498
[17] = system: PC-3
[18] = system: OVCAR-5
[19] = system: EKVX
[20] = system: KM12

Measured: GI50

CC(C)Cc1ccc(C(C)/C=C2\CCC(CN3CCCCC3)C2=O)cc1 (stereo not given)
inactive: [1] 2.46 µM | [2] 5.12 µM | [3] 2.33 µM | [5] 2.12 µM | [6] 4.54 µM | [7] 10.1 µM | [8] 18.5 µM | [9] 6.98 µM | [10] 3.87 µM | [11] 12 µM | [12] 13.5 µM | [13] 14.7 µM | [15] 15.6 µM | [16] 14.3 µM | [17] 6.31 µM | [18] 17.4 µM | [19] 13.6 µM | [20] 2.56 µM
2.75 µM: [14]
active: [4] 0.611 µM

Cc1cc(C(=O)NCCN(C)C)c2nc3ccccc3nc2c1
active: [7] 1.06 µM
2.9 µM: [14]
inactive: [1] 2.05 µM | [2] 2.67 µM | [3] 4.08 µM | [4] 3.15 µM | [5] 3.45 µM | [6] 4.31 µM | [9] 2.22 µM | [10] 1.48 µM | [11] 6.79 µM | [12] 4.44 µM | [13] 3.44 µM | [15] 4.52 µM | [16] 3.92 µM | [18] 7.43 µM | [19] 8.26 µM | [20] 3.91 µM

CC1=CC(=O)NP(=O)(Oc2ccc(Cl)cc2)N1 (stereo not given)
inactive: [1] 89.3 µM | [2] > 100 µM | [3] > 100 µM | [4] > 100 µM | [5] > 100 µM | [6] > 100 µM | [7] > 100 µM | [9] > 100 µM | [10] > 100 µM | [11] > 100 µM | [12] > 100 µM | [13] > 100 µM | [15] > 100 µM | [16] > 100 µM | [18] > 100 µM | [19] > 100 µM | [20] > 100 µM
> 100 µM: [14]

Cc1ccc(S(=O)(=O)N[C@H](C(=O)O)c2ccccc2)cc1
inactive: [1] > 100 µM | [2] > 100 µM | [3] > 100 µM | [4] 26.8 µM | [5] > 100 µM | [6] > 100 µM | [7] > 100 µM | [9] > 100 µM | [11] > 100 µM | [12] > 100 µM | [13] > 100 µM | [15] > 100 µM | [16] > 100 µM | [18] > 100 µM | [19] > 100 µM | [20] > 100 µM
> 100 µM: [14]

CC1=C(C(=O)NCc2ccccc2)C(c2ccc([N+](=O)[O-])cc2)C(C(=O)NCc2ccccc2)=C(C)N1
45.4 µM: [14]
inactive: [1] 31.2 µM | [2] 18.1 µM | [3] 36.7 µM | [5] 76 µM | [6] 66.4 µM | [7] 26.8 µM | [9] 27.4 µM | [10] 21.9 µM | [11] 65.2 µM | [12] 38.5 µM | [13] 31.8 µM | [15] 40.4 µM | [16] 86.1 µM | [18] 25.4 µM | [19] > 100 µM | [20] 34.7 µM
